Results taken from patent US9920010B2, “CXCR7 receptor modulators” (IDORSIA PHARMACEUTICALS LTD, priority 2013, dated 2018).

Molecular target: T1, CXCR7 (Homo sapiens, UniProt P25106)
T1 construct: host or cells: CHO-K1 (PathHunter CHO-K1 CXCR7 b-arrestin cell line, stably transfected)
Experiment: PathHunter CHO-K1 CXCR7 b-arrestin recruitment assay (CXCR7 agonistic activity)
Format: cell-based
Settings: PathHunter CHO-K1 CXCR7 b-arrestin cell line
In short: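 Stable CHO-K1 line with C-terminally ProLink-tagged CXCR7 and β-arrestin 2–EA fusion; β-arrestin recruitment restores β-gal activity, read by chemiluminescence after 1 h RT detection. Cells seeded 24 h, starved in OPTIMEM 3–4 h, exposed to compounds 90 min at 37 °C in HBSS/HEPES/BSA. Geometric-mean EC50 from repeated measurements.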

T1 sequence (P25106 whole entry): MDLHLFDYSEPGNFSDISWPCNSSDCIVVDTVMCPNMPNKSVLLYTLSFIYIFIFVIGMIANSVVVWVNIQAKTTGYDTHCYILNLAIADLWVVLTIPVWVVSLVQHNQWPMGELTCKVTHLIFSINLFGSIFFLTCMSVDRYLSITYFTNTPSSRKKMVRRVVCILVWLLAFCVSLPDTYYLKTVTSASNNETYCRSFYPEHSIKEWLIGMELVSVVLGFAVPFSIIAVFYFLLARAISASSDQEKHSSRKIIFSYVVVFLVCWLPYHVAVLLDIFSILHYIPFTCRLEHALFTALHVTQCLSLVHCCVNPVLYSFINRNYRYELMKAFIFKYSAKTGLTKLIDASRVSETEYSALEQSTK
T1 sequence (P32121 whole entry partner): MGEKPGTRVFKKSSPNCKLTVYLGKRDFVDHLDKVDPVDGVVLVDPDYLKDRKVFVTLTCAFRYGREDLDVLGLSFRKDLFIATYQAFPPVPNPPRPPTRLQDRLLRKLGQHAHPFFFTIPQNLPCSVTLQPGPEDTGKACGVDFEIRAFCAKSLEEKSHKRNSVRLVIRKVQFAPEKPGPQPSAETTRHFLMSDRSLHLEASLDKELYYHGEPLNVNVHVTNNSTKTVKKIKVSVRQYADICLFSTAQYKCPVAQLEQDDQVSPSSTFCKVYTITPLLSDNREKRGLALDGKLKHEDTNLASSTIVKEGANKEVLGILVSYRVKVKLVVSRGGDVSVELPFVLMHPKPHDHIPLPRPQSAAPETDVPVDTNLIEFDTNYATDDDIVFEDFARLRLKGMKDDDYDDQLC

Compound	EC50 [nM]
CN(CCN(Cc1ncccc1C(F)(F)F)C(=O)CNc1cccc2c1CCN(CC1CC1)C2)CC(F)(F)F [Example 280, 2-(2-Cyclopropylmethyl-1,2,3,4-tetrahydro-isoquinolin-5-ylamino)-N-{2-[methyl-(2,2,2-trifluoro-ethyl)-amino]-ethyl}-N-(3-trifluoromethyl-pyridin-2-ylmethyl)-acetamide]	28
O=C(CNc1cccc2c1CCN(CC1CC1)C2)N(CCN1CCCC(F)(F)C1)Cc1ccccc1C(F)(F)F [Example 281, 2-(2-Cyclopropylmethyl-1,2,3,4-tetrahydro-isoquinolin-5-ylamino)-N-[2-(3,3-difluoro-piperidin-1-yl)-ethyl]-N-(2-trifluoromethyl-benzyl)-acetamide]	43
O=C(CNc1cccc2c1CCN(CC1CC1)C2)N(CCN1CCC(F)(F)C1)Cc1ccccc1C(F)(F)F [Example 282, 2-(2-Cyclopropylmethyl-1,2,3,4-tetrahydro-isoquinolin-5-ylamino)-N-[2-(3,3-difluoro-pyrrolidin-1-yl)-ethyl]-N-(2-trifluoromethyl-benzyl)-acetamide]	47
O=C(CNc1cccc2c1CCN(CC1CC1)C2)N(CCN1CCCC(F)(F)C1)Cc1ncccc1C(F)(F)F [Example 283, 2-(2-Cyclopropylmethyl-1,2,3,4-tetrahydro-isoquinolin-5-ylamino)-N-[2-(3,3-difluoro-piperidin-1-yl)-ethyl]-N-(3-trifluoromethyl-pyridin-2-ylmethyl)-acetamide]	11
O=C(CNc1cccc2c1CCN(CC1CC1)C2)N(CCN1CCC(F)(F)C1)Cc1ncccc1C(F)(F)F [Example 284, 2-(2-Cyclopropylmethyl-1,2,3,4-tetrahydro-isoquinolin-5-ylamino)-N-[2-(3,3-difluoro-pyrrolidin-1-yl)-ethyl]-N-(3-trifluoromethyl-pyridin-2-ylmethyl)-acetamide]	18
CN(C)CCN(Cc1ccc(Nc2ccc(F)cc2)cn1)C(=O)CNc1cccc2c1CCN(CC1CC1)C2 [Example 285, 2-(2-Cyclopropylmethyl-1,2,3,4-tetrahydro-isoquinolin-5-ylamino)-N-(2-dimethylamino-ethyl)-N-[5-(4-fluoro-phenylamino)-pyridin-2-ylmethyl]-acetamide]	408
CN(C)CCN(Cc1ccccc1C(F)(F)F)C(=O)CNc1cccc2c1CCN(CCF)C2 [Example 286, N-(2-Dimethylamino-ethyl)-2-[2-(2-fluoro-ethyl)-1,2,3,4-tetrahydro-isoquinolin-5-ylamino]-N-(2-trifluoromethyl-benzyl)-acetamide]	37
CN(C)CCN(Cc1ccccc1C(F)(F)F)C(=O)CNc1ccc(Cl)c2c1CCN(CC1CC1)C2 [Example 287, 2-(8-Chloro-2-cyclopropylmethyl-1,2,3,4-tetrahydro-isoquinolin-5-ylamino)-N-(2-dimethylamino-ethyl)-N-(2-trifluoromethyl-benzyl)-acetamide]	150
CN(C)CCN(Cc1ccccc1C(F)(F)F)C(=O)CNc1ccc(F)c2c1CCN(CC1CC1)C2 [Example 288, 2-(2-Cyclopropylmethyl-8-fluoro-1,2,3,4-tetrahydro-isoquinolin-5-ylamino)-N-(2-dimethylamino-ethyl)-N-(2-trifluoromethyl-benzyl)-acetamide]	23
CN(C)CCN(Cc1ncccc1C(F)(F)F)C(=O)CNc1ccc(F)c2c1CCN(CC1CC1)C2 [Example 289, 2-(2-Cyclopropylmethyl-8-fluoro-1,2,3,4-tetrahydro-isoquinolin-5-ylamino)-N-(2-dimethylamino-ethyl)-N-(3-trifluoromethyl-pyridin-2-ylmethyl)-acetamide]	16
Cc1ccc2c(c1NCC(=O)N(CCN(C)C)Cc1ccccc1C(F)(F)F)CCN(CC1CC1)C2 [Example 290, 2-(2-Cyclopropylmethyl-6-methyl-1,2,3,4-tetrahydro-isoquinolin-5-ylamino)-N-(2-dimethylamino-ethyl)-N-(2-trifluoromethyl-benzyl)-acetamide]	5
C[C@H](Nc1cccc2c1CCN(CC1CC1)C2)C(=O)N(CCN(C)C)Cc1ccccc1C(F)(F)F [Example 291, (S)-2-(2-Cyclopropylmethyl-1,2,3,4-tetrahydro-isoquinolin-5-ylamino)-N-(2-dimethylamino-ethyl)-N-(2-trifluoromethyl-benzyl)-propionamide]	92
CN(C)CCN(Cc1ccccc1C(F)(F)F)C(=O)C1(Nc2cccc3c2CCN(CC2CC2)C3)CC1 [Example 292, 1-(2-Cyclopropylmethyl-1,2,3,4-tetrahydro-isoquinolin-5-ylamino)-cyclopropanecarboxylic acid (2-dimethylamino-ethyl)-(2-trifluoromethyl-benzyl)-amide]	103
CN(C)CCN(Cc1ccccc1Cl)C(=O)CNc1cc(C(F)(F)F)cc2c1CCN(CC1CC1)C2 [Example 295, N-(2-Chloro-benzyl)-2-(2-cyclopropylmethyl-7-trifluoromethyl-1,2,3,4-tetrahydro-isoquinolin-5-ylamino)-N-(2-dimethylamino-ethyl)-acetamide]	411
CN(C)CCN(Cc1ccccc1C(F)(F)F)C(=O)CNc1cc(C(F)(F)F)cc2c1CCN(CC1CC1)C2 [Example 296, 2-(2-Cyclopropylmethyl-7-trifluoromethyl-1,2,3,4-tetrahydro-isoquinolin-5-ylamino)-N-(2-dimethylamino-ethyl)-N-(2-trifluoromethyl-benzyl)-acetamide]	430
COCCN1CCc2c(cccc2NCC(=O)N(CCN(C)C(=O)OC(C)(C)C)Cc2ccccc2C(F)(F)F)C1 [Example 297, {2-[{2-[2-(2-Methoxy-ethyl)-1,2,3,4-tetrahydro-isoquinolin-5-ylamino]-acetyl}-(2-trifluoromethyl-benzyl)-amino]-ethyl}-methyl-carbamic acid tert-butyl ester]	461
COCCN1CCc2c(cccc2NCC(=O)N(CCC(C)(C)C)Cc2ncccc2C)C1 [Example 298, N-(3,3-Dimethyl-butyl)-2-[2-(2-methoxy-ethyl)-1,2,3,4-tetrahydro-isoquinolin-5-ylamino]-N-(3-methyl-pyridin-2-ylmethyl)-acetamide]	114
COCCN1CCc2c(cccc2NCC(=O)N(Cc2ccccc2C(F)(F)F)CC(O)COC)C1 (stereo not shown) [Example 299, N-(2-Hydroxy-3-methoxy-propyl)-2-[2-(2-methoxy-ethyl)-1,2,3,4-tetrahydro-isoquinolin-5-ylamino]-N-(2-trifluoromethyl-benzyl)-acetamide]	291
COCCN1CCc2c(cccc2NCC(=O)N(CCN2CCC(F)(F)CC2)Cc2ncccc2C(F)(F)F)C1 [Example 300, N-[2-(4,4-Difluoro-piperidin-1-yl)-ethyl]-2-[2-(2-methoxy-ethyl)-1,2,3,4-tetrahydro-isoquinolin-5-ylamino]-N-(3-trifluoromethyl-pyridin-2-ylmethyl)-acetamide]	96
COCCN1CCc2c(cccc2NCC(=O)N(Cc2ccccc2C(F)(F)F)CC(C)(C)O)C1 [Example 301, N-(2-Hydroxy-2-methyl-propyl)-2-[2-(2-methoxy-ethyl)-1,2,3,4-tetrahydro-isoquinolin-5-ylamino]-N-(2-trifluoromethyl-benzyl)-acetamide]	208
COCCN1CCc2c(cccc2NCC(=O)N(CCN(C)CCF)Cc2ccccc2C(F)(F)F)C1 [Example 302, N-{2-[(2-Fluoro-ethyl)-methyl-amino]-ethyl}-2-[2-(2-methoxy-ethyl)-1,2,3,4-tetrahydro-isoquinolin-5-ylamino]-N-(2-trifluoromethyl-benzyl)-acetamide]	27
COCCN1CCc2c(cccc2NCC(=O)N(Cc2ccccc2C(F)(F)F)CC2(C)COC2)C1 [Example 303, 2-[2-(2-Methoxy-ethyl)-1,2,3,4-tetrahydro-isoquinolin-5-ylamino]-N-(3-methyl-oxetan-3-ylmethyl)-N-(2-trifluoromethyl-benzyl)-acetamide]	246
COCCN1CCc2c(cccc2NCC(=O)N(CCC(C)(C)O)Cc2ccccc2C(F)(F)F)C1 [Example 304, N-(3-Hydroxy-3-methyl-butyl)-2-[2-(2-methoxy-ethyl)-1,2,3,4-tetrahydro-isoquinolin-5-ylamino]-N-(2-trifluoromethyl-benzyl)-acetamide]	311
COCCN1CCc2c(cccc2NCC(=O)N(CCN2CCC(F)(F)CC2)Cc2ncccc2Cl)C1 [Example 305, N-(3-Chloro-pyridin-2-ylmethyl)-N-[2-(4,4-difluoro-piperidin-1-yl)-ethyl]-2-[2-(2-methoxy-ethyl)-1,2,3,4-tetrahydro-isoquinolin-5-ylamino]-acetamide]	230
COCCN1CCc2c(cccc2NCC(=O)N(CCN(C)C)Cc2ncccc2Cl)C1 [Example 306, N-(3-Chloro-pyridin-2-ylmethyl)-N-(2-dimethylamino-ethyl)-2-[2-(2-methoxy-ethyl)-1,2,3,4-tetrahydro-isoquinolin-5-ylamino]-acetamide]	39
COCCN1CCc2c(cccc2NCC(=O)N(Cc2ncccc2Cl)CC(C)(C)O)C1 [Example 307, N-(3-Chloro-pyridin-2-ylmethyl)-N-(2-hydroxy-2-methyl-propyl)-2-[2-(2-methoxy-ethyl)-1,2,3,4-tetrahydro-isoquinolin-5-ylamino]-acetamide]	423
C#CCN1CCc2c(cccc2NCC(=O)N(CCN(C)C)Cc2ccccc2C(F)(F)F)C1 [Example 308, N-(2-Dimethylamino-ethyl)-2-(2-prop-2-ynyl-1,2,3,4-tetrahydro-isoquinolin-5-ylamino)-N-(2-trifluoromethyl-benzyl)-acetamide]	28
CCN1Cc2cccc(NCC(=O)N(CCN(C)C)Cc3ccccc3C(F)(F)F)c2CC1=O [Example 309, N-(2-Dimethylamino-ethyl)-2-(2-ethyl-3-oxo-1,2,3,4-tetrahydro-isoquinolin-5-ylamino)-N-(2-trifluoromethyl-benzyl)-acetamide]	24
